The numbers were not newly measured in patent publication US20090004360A1, “Taste Potentiator Compositions in Oral Delivery Systems” (CADBURY ADAMS USA LLC, priority 2007, published 2009), which cites them from elsewhere.

Peptide text beside a SMILES is read from it.

Test in data set [1]: not given
This is another data set of the same source.

Take `O=C(O)c1cccc(O)c1` [Example 3-HB, 3-hydroxybenzoic acid]: under “pH 2.0 to 5.5, European Patent No. 0132444 and U.S. Pat. No. 4,627,987”, the “effect on sweetness of sucrose, aspartame and saccharin” value is “enhance sweetness”.
For the compound `OCC(O)CO` [Glycerin], the “sweetness relative to cane sugar” value in data set [1] (in vivo) was “about 60%”.
For the compound `COC(=O)[C@H](Cc1ccccc1)NC(=O)[C@@H](N)CC(=O)O` [aspartame, L-aspartyl-L-phenylalanine methyl ester] (HELM PEPTIDE1{D.F.[CO[*:1]]}$$$$V2.0), the “sweetness relative to sucrose” value in data set [1] (recognized value, 0.05 g in 100 ml isosweet to 10 g sucrose in 100 ml) is on record as 200 times.
`O=C(O)c1ccc(O)cc1O` [2,4-DHB, 2,4-Dihydroxybenzoic acid]: where the note is “0.2% added to a 5% sucrose solution, Canadian Patent No. 1208966”, the “effect on sweetness of a sucrose solution” value is given as “increase in sweetness”. The “effect on the sweetness intensity of both sucralose and aspartame” value (FIGS. 1 and 2 and Tables 1 and 2 of U.S. Pat. No. 6,461,658) was “slightly inhibitory effect”. Moreover, the “effect on sweetness of aspartame” value (used with aspartame, WO99/15032) is recorded as “increase sweetness synergistically”. Besides, the “length of time during which sucralose sweetness is perceived” value (with sucralose, U.S. Pat. No. 6,461,658) is “significantly reducing the length of time”.
